Data as given in PubChem BioAssay (NCI).
Where “and” joins values, the source holds several entries; their conditions need not be identical. Identical values can stand only once.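 Results reflect a 48-hour exposure of cells in 96-well plates to compound at five concentrations. At the GI50, growth is halved. TGI is the concentration that stops growth completely.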

Legend:
Assay in all cases: DTP human tumour cell line panel, 48 h
[1] = test system: IGROV1 ovarian
[2] = test system: OVCAR-3 ovarian
[3] = test system: HOP-62 NSCLC
[4] = test system: RPMI-8226 leukemia
[5] = test system: SNB-19 CNS
[6] = test system: CAKI-1 renal
[7] = test system: EKVX NSCLC
[8] = test system: SK-OV-3 ovarian
[9] = test system: DU-145 prostate
[10] = test system: HS 578T breast

Compound | TGI [1] | TGI [2] | TGI [3] | TGI [4] | TGI [5] [µM] | TGI [6] [µM] | TGI [7] [µM] | TGI [8] | GI50 [4] | GI50 [1] | GI50 [5] | GI50 [2] | GI50 [6] | GI50 [9] | TGI [9] | GI50 [8] | GI50 [10] | TGI [10] | GI50 [3] | GI50 [7] [µM]
CN(C)CCNc1nc(-c2cccs2)cc(-c2cccs2)n1 | 69.2 µM | 48.7 µM | 40.7 µM |  |  |  |  |  |  |  |  |  |  |  |  |  |  |  |  | 
COC(=O)Cc1nc2ccccc2o1 | > 100 µM | > 100 µM | > 100 µM | > 100 µM | > 100 | > 100 | > 100 | > 100 µM |  |  |  |  |  |  |  |  |  |  |  | 
CCCCCc1c(C)[nH]c(/C=C2\N=C(c3ccc[nH]3)C=C2OCc2ccccc2)c1C | 1.79 µM and 1.4 µM | 0.463 µM and 0.139 µM | 1.89 µM and 1.37 µM | 0.235 µM and 0.317 µM | 1.96 |  |  | 2.48 µM and 0.983 µM | 0.0343 µM and 0.0301 µM | 0.161 µM and 0.0596 µM | 0.21 µM and 0.112 µM | 0.0447 µM and 0.0264 µM | 0.0498 µM and 0.0269 µM | 0.0581 µM and 0.0366 µM | 1.62 µM and 1.08 µM | 0.326 µM and 0.0978 µM | 0.0962 µM and 0.0277 µM | 0.697 µM and 0.238 µM | 0.164 µM and 0.0925 µM | 
COc1cc([C@@H]2c3cc4c(cc3C[C@H]3COC(=O)[C@@H]32)OCO4)cc2c1OCO2 | 0.048 µM | < 0.01 µM | > 82 µM | > 100 µM |  |  | > 100 | > 100 µM |  |  |  |  |  |  | > 100 µM |  |  |  |  | 
CCOC(=O)NC(=O)c1c[nH]c(=O)[nH]c1=O | > 100 µM | > 100 µM | > 100 µM | > 100 µM | > 100 | > 100 | > 100 | > 100 µM |  |  |  |  |  |  |  |  |  |  |  | 
Cc1ccc(S(=O)OC23CC4CC(CC(C4)C2)C3)cc1 (centres undefined) | 85.7 µM | > 100 µM | > 100 µM | > 100 µM | > 100 | > 100 | > 100 | > 100 µM |  |  |  |  |  |  |  |  |  |  |  | 
O=C1c2ccn(CCCCN3CCC(O)CC3)c2C(=O)c2c1c(O)c1ccccc1c2O | > 100 µM | 4.95 µM | 34.9 µM |  | > 86.9 | 43.7 | 46.5 | > 74.6 µM |  | 2.53 µM | > 52.2 µM | 2.24 µM | 13.9 µM | 7.98 µM |  | 41.3 µM | 29.2 µM | > 83.8 µM | 16.3 µM | 14.5
COc1ccc(C(=O)O/N=C2/CCC/C2=C\c2ccccc2)cc1 | > 100 µM | > 100 µM | > 100 µM | > 100 µM | > 100 | > 100 | > 100 | > 100 µM |  |  |  |  |  |  |  |  |  |  |  | 
CN(C)CC1CCCC/C1=N/OC(=O)c1ccc(Cl)c(Cl)c1 (centres undefined) | > 100 µM | > 100 µM | > 100 µM | > 100 µM |  | > 100 | > 100 | > 100 µM |  |  |  |  |  |  |  |  |  |  |  | 
OCC(O)C(OC1OC(CO)C(O)C(O)C1O)c1nn(-c2ccccc2)c2nc3cc(Cl)ccc3nc12 (centres undefined) |  | > 100 µM | > 100 µM | > 100 µM | > 100 |  | > 100 | > 100 µM |  |  |  |  |  |  |  |  |  |  |  | 
COc1cccc(C2=C(c3cn(C)c4cccc(OC)c34)C(=O)NC2=O)c1 | > 25 µM | > 25 µM | > 25 µM | > 24.1 µM | > 25 | > 25 |  | > 25 µM | 9.09 µM | 7.49 µM | > 25 µM | 7.74 µM | 9.79 µM | 10.7 µM | > 25 µM | 11.6 µM | 8.93 µM | > 25 µM | 18.8 µM | 
COc1ccc(C2=NOP(c3ccccc3)(c3ccccc3)(c3ccccc3)C2)cc1 | > 100 µM | > 85.5 µM | > 100 µM | 33.5 µM | > 100 | > 64 | > 100 | > 100 µM |  |  |  |  |  |  |  |  |  |  |  | 
Cc1ccc(NC(=O)CCC(=O)C(C#N)c2ccccc2)cc1C (centres undefined) | > 100 µM | > 100 µM |  | > 100 µM | > 100 | > 100 | > 100 | > 100 µM |  |  |  |  |  |  |  |  |  |  |  | 
C[N+](C)(C)CC1CCCC/C1=N\O (centres undefined) | > 100 µM | > 100 µM | > 100 µM | > 100 µM | > 100 |  | > 100 | > 100 µM |  |  |  |  |  |  |  |  |  |  |  | 
O=C(/C(=C/c1ccccc1)c1ccccc1)N1c2ccccc2CC1c1c[nH]c2ccccc12 (centres undefined) | > 100 µM | 89.6 µM | > 100 µM | > 100 µM | > 100 | > 100 | > 100 | > 100 µM |  |  |  |  |  |  |  |  |  |  |  | 
C#CCN(C)C(=O)N(CC#C)N=O | > 100 µM | > 100 µM | > 100 µM | > 100 µM | > 100 |  | > 100 | > 100 µM |  |  |  |  |  |  |  |  |  |  |  | 
Nc1c(-c2nc3ccccc3[nH]2)sc(=S)n1-c1ccc(Cl)cc1 | 73.2 µM | 36.4 µM | 47.3 µM | 90.2 µM | 57.4 | 54.6 | 67.4 | 56.9 µM |  |  |  |  |  |  |  |  |  |  |  | 
CC(C)(C)C(=O)OCc1nc2cc3c(cc2c(=O)[nH]1)CCC3=O | > 100 µM | > 100 µM | > 100 µM | > 100 µM | > 100 | > 100 |  | > 100 µM | > 100 µM | > 100 µM | > 100 µM | > 100 µM | > 100 µM | > 100 µM | > 100 µM | > 100 µM | > 100 µM | > 100 µM | > 100 µM | 
COc1cc(/C=N\O)nc(-c2ccccn2)c1 | 13.2 µM | > 100 µM |  | > 76.8 µM | > 100 | 28 | 23.5 | > 100 µM |  |  |  |  |  |  | > 100 µM |  |  | > 100 µM |  | 
Cc1cc(O)cc2c1c(=O)c1ccccc1n2C | > 100 µM | > 100 µM |  | > 100 µM | > 100 | > 100 | > 100 | > 100 µM |  |  |  |  |  |  | > 100 µM |  |  | > 100 µM |  | 
Nc1c(C(=O)Nc2cccc(Br)c2)sc2nc3c(cc12)C(O)CCC3 (centres undefined) | > 70.3 µM | 3.08 µM | 48.3 µM | 23.5 µM | 53.9 | > 100 |  | 40.8 µM | 0.404 µM | 0.833 µM | 2.52 µM | 0.32 µM | 0.439 µM | 0.455 µM | 22.4 µM | 0.57 µM | 0.395 µM | 12.7 µM | 0.575 µM | 
COc1ccc2nc3cccc(C(=O)NCCN(C)C)c3nc2c1 | > 48.2 µM | 5.89 µM | 3.76 µM | 27.6 µM | 19.6 | > 20.9 | 12.7 | > 28 µM |  |  |  |  |  |  |  |  |  |  |  | 
